Format in all cases: cell-based
The target of one assay is DDR1 (Homo sapiens, UniProt Q08345). Kind of assay: Degradation of DDR1 in tumor cell MKN45 (Western blot). More on the design: The degradation activity of the compounds against DDR1 in the MKN45 cell line; endogenous in cells; host or cells: MKN45. Conditions: MKN-45, maximum degradation percentage, MKN45 cells, 24 hours. As to the method:
Western blot experiment: Take gastric cancer cells (MKN45) and inoculate them into a 6-well plate at a concentration of […], adding 2 ml to each well and incubating for 24 hours.
The next day, observe the cells under a microscope to confirm their status. Prepare compounds, weigh a certain amount of the series compounds or reference drug cabozantinib from this patent, first prepare a high concentration mother liquor with pure DMSO, and use gradient dilution method to prepare compound concentrations of 2 mM, 200 μM, 100 μM, 20 μM, 2 μM, 200 nM, and 0 nM. The final concentration of DMSO is 0.5%. Shake to thoroughly mix. Add 10 μl of solution to each well. After incubation for 24 hours, remove the cells and use a pipette to aspirate the suspended cells into a 1.5 ml centrifuge tube. Centrifuge at 5000 rpm for 10 minutes to precipitate the cells. Carefully remove the cell precipitate from the culture medium, add 1 ml of PBS and shake slightly. After repeated cleaning for 3 times, dry the residue. Add 150 μl of RIPA lysate pre mixed with 1% PMSF, blow to allow the lysate to fully contact the cells, and incubate on ice for 10 minutes. Centrifuge at 12000 rpm for 10 minutes, extract the supernatant, use the BCA protein quantification kit to determine and homogenize the sample loading.
Mix BCA-A in a 50:1 ratio Prepare working solution with B solution, dilute the sample by 5 times, then pipette 20 μl onto a 96 well ELISA plate. Add 200 μl of pre mixed BCA working solution and incubate at 37° C. for 20 minutes. Measure the A562 nm absorbance value using an ELISA reader and substitute it into the protein standard curve formula to obtain the sample concentration. After calculating the required volume for loading […] of sample, divide the sample into 1.5 ml centrifuge tubes. Add 10 μl of sample buffer to each tube and mix well. Heat in a 95° C. metal bath for 5 minutes to denature the protein.
Take 4-20% gradient pre adhesive and fix it on the adhesive rack. Add electrophoresis solution to the slot and remove the comb, Marker and protein samples were loaded, and after 30 minutes of electrophoresis at 80V, the voltage was adjusted to 120V for electrophoresis, The marker band stops electrophoresis at the forefront of the gel. Take out the adhesive block and cut it to the appropriate size, The PVDF membrane was cut and activated in methanol, and after activation, the PVDF membrane was equilibrated in a membrane transfer equilibrium solution for 1 minute. Using sponge pads The sequence of PVDF film, adhesive, and sponge pad is placed in the splint and placed in the eBlot equipment for rapid wet rotation. Remove the membrane and seal it in 5% skim milk powder dissolved in 1×TBST for 1 hour. Cut the membrane according to the molecular weight of the target protein and internal reference protein, and place it in primary antibody diluted with 1×TBST. Shake overnight at 4° C.
The next day, transfer the band to 1×TBST for 3 washes, then add a specific dilution of the secondary antibody and shake it for 1.5 hours. Transfer the band again to 1×TBST for 3 washes, prepare ECL color solution, place the membrane in the imaging system, cover the surface with ECL color solution, and take photos of the membrane using the imaging system.
Using the SHST analysis system to analyze the results, measure the grayscale values of each band of the target protein and internal reference protein. Normalize the grayscale values of the target protein/corresponding lane GAPDH grayscale values, and perform quantitative analysis according to the protein amount=experimental group grayscale value/blank control group grayscale value.
The activity of the compound of the present invention in degrading DDR in tumor cell line MKN45 was measured. […]
On the technique in general: Immunoblotting shows a protein as a band on a membrane.

The next assay has as its system SNU5. Kind of assay: Growth inhibition of gastric cancer cells SNU5 (CCK-8). Conditions: Homo sapiens, SNU-5, half inhibitory concentration, 72 hours. As to the method:
(§1) Inoculate gastric cancer cells (SNU5 or MKN45) into a 96 well plate at a concentration of […], with 100 μl added to each well. Incubate for 30 minutes. Observe the cell status under a microscope. Prepare compounds, weigh a certain amount of the series compounds or reference drug cabozantinib of this patent, first prepare a high concentration mother liquor with pure DMSO, and use gradient dilution method to prepare a concentration of 200 μM, 60 μM, 20 μM, 6 μM, 2 μM, 600 nM, 200 nM, 0 nM drug solution, shake to make it fully mixed. The control group was prepared with cabozantinib using the same solvent and method.
(§2) After preparation, add 1 μl of drug solution to each well of the 96 well plate, and then add 100 μl of culture medium. Repeat each dose three times. Gently shake to allow the cells and medication to come into full contact and incubate in the incubator for 72 hours. 72 hours later, remove and color with CCK-8 reagent kit. Add 20 μl of CCK-8 reagent to each well, gently shake well, and incubate in the incubator for 1 hour. After 1 hour, remove and measure the absorbance of each well using an enzyme-linked immunosorbent assay (ELISA) reader at a wavelength of 450 nm.
(§3) According to the formula: Cell growth inhibition rate=[1−(absorbance of experimental group absorbance of culture medium control group)/(absorbance of blank control group−absorbance of culture medium control group)]×100%. It can be concluded that the compound has the ability to inhibit the growth of gastric cancer cells at the current dose and time.
(§4) Draw a graph based on the gradient of concentration and use GraphPad Prism 9 software (GraphPad Software, La Jolla, CA) to calculate the maximum inhibitory concentration (IC50) at 50%.
(§5) Referring to steps 1 and 2 of this embodiment, the inhibitory effect of the compound of the present invention on the growth of cancer cells and the degradation effect of target proteins were measured, and the following results were obtained (see Table 2 below).
(§6) The growth inhibitory effects of the compound of the present invention on tumor cell lines MKN45 and SNU5 were measured. The activity is expressed as half inhibitory concentration (C50). The results are shown in Table 2 below; When the half inhibitory concentration is less than or equal to 100 nM, the compound activity is labeled as “++++”; When the half inhibitory concentration is greater than 100 nM and less than 500 nM, the compound activity is labeled as […] and less than 1000 nM, the compound activity is labeled as “++”; When the half inhibitory concentration is greater than 1000 nM and less than 3000 nM, the compound activity is marked as “+”; When the half inhibitory concentration is greater than 3000 nM, the compound activity is marked as […]

The test system of the next assay is MKN45. Kind of assay: Growth inhibition of gastric cancer cells MKN45 (CCK-8). Conditions: Homo sapiens, MKN-45, half inhibitory concentration, 72 hours. As to the method: as §1, §2, §3, §4, §5, §6

Among the data in patent US20240374738A1, “BIFUNCTIONAL COMPOUND CAPABLE OF DEGRADING RECEPTOR TYROSINE KINASE AND APPLICATION THEREOF” (TAIBIDI PHARMACEUTICAL TECHNOLOGY (SHIJIAZHUANG) CO., LTD., priority 2023, published 2024) are Dmax and IC50 values, retold here.

Sequence of DDR1 (Q08345 19-913): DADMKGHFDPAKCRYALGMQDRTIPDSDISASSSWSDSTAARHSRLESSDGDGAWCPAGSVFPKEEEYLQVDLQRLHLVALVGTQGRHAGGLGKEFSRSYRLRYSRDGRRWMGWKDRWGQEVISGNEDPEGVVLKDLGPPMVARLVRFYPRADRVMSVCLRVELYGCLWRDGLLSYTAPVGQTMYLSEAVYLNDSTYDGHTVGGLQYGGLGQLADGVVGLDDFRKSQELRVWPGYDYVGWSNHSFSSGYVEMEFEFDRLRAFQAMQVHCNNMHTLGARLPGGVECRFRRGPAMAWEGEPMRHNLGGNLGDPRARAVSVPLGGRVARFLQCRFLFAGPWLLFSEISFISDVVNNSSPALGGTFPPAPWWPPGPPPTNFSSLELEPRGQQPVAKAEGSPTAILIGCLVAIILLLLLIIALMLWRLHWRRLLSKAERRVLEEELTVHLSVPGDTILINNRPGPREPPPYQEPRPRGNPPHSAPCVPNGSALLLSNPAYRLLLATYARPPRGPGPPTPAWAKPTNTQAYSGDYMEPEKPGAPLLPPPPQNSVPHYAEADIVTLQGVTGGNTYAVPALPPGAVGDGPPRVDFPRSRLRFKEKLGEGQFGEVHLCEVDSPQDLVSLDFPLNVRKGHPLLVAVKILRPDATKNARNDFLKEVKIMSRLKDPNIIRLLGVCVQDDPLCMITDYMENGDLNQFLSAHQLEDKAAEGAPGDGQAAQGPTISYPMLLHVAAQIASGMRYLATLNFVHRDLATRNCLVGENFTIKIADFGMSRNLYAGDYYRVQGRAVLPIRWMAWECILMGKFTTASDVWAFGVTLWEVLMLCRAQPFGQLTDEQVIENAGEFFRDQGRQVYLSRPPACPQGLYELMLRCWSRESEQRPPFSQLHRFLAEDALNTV

Usually Dmax stands for the largest share of the target that was removed. For orientation: IC50 means the point on the concentration scale where inhibition reaches its midpoint. Low values mean higher potency, high ones lower potency. In turn, `COc1cc2c(Oc3ccc(NC(=O)C4(C(=O)Nc5ccc(F)cc5)CC4)cc3)ccnc2cc1N1CCC(CN2CC(N[C@H](C(=O)N3C[C@H](O)C[C@H]3C(=O)NCc3ccc(-c4scnc4C)cc3)C(C)(C)C)C2)CC1` [TPD5431] showed a Dmax on DDR1 of 65 to 75%. For the same compound, the IC50 in the assay with SNU5 and in the assay with MKN45 was 1000 to 3000 nM in each case.
Take `COc1cc2c(Oc3ccc(NC(=O)C4(C(=O)Nc5ccc(F)cc5)CC4)cc3)ccnc2cc1N1CCC(N2CC(C(=O)N[C@H](C(=O)N3C[C@H](O)C[C@H]3C(=O)NCc3ccc(-c4scnc4C)cc3)C(C)(C)C)C2)CC1` [TPD5432]: the Dmax on DDR1 lay within 75 to 85%. Besides, the IC50 with SNU5 is at most 100 nM; with MKN45, 100 to 500 nM.
Compound `COc1cc2c(Oc3ccc(NC(=O)C4(C(=O)Nc5ccc(F)cc5)CC4)cc3)ccnc2cc1N1CCC(C(=O)N2CCC(C(=O)N[C@H](C(=O)N3C[C@H](O)C[C@H]3C(=O)NCc3ccc(-c4scnc4C)cc3)C(C)(C)C)CC2)CC1` [TPD5436] displayed a Dmax at DDR1 of 65 to 75%. In addition, the IC50 in the assay with SNU5 and in the assay with MKN45 was 100 to 500 nM throughout.
For `COc1cc2c(Oc3ccc(NC(=O)C4(C(=O)Nc5ccc(F)cc5)CC4)cc3)ccnc2cc1N1CCC(C(=O)NCC(=O)N[C@H](C(=O)N2C[C@H](O)C[C@H]2C(=O)NCc2ccc(-c3scnc3C)cc2)C(C)(C)C)CC1` [TPD5452], the Dmax on DDR1 is 65 to 75%. The IC50 with SNU5 and in the assay with MKN45 was 1000 to 3000 nM each time.
The compound `COc1cc2c(Oc3ccc(NC(=O)C4(C(=O)Nc5ccc(F)cc5)CC4)cc3)ccnc2cc1N1CCC(C(=O)NCCCCC(=O)N[C@H](C(=O)N2C[C@H](O)C[C@H]2C(=O)NCc2ccc(-c3scnc3C)cc2)C(C)(C)C)CC1` [TPD5453] gave a Dmax on DDR1 of 75 to 85%. For the same compound, the figures for the IC50 in the assay with SNU5 and in the assay on MKN45 were 500 to 1000 nM and 1000 to 3000 nM, respectively.
The corresponding values for `COc1cc2c(Oc3ccc(NC(=O)C4(C(=O)Nc5ccc(F)cc5)CC4)cc3)ccnc2cc1N1CCN(CCCC(=O)N[C@H](C(=O)N2C[C@H](O)C[C@H]2C(=O)NCc2ccc(-c3scnc3C)cc2)C(C)(C)C)CC1` [TPD5457] are 75 to 85%, at most 100 nM and at most 100 nM.
The corresponding values for `COc1cc2c(Oc3ccc(NC(=O)C4(C(=O)Nc5ccc(F)cc5)CC4)cc3)ccnc2cc1N1CCC(N2CCN(C(=O)CCCCC(=O)N[C@H](C(=O)N3C[C@H](O)C[C@H]3C(=O)NCc3ccc(-c4scnc4C)cc3)C(C)(C)C)CC2)CC1` [TPD5494] are over 85%, 100 to 500 nM and 1000 to 3000 nM.
As to `COc1cc2c(Oc3ccc(NC(=O)C4(C(=O)Nc5ccc(F)cc5)CC4)cc3)ccnc2cc1N1CCC(N2CCN(C(=O)CCOCC(=O)N[C@H](C(=O)N3C[C@H](O)C[C@H]3C(=O)NCc3ccc(-c4scnc4C)cc3)C(C)(C)C)CC2)CC1` [TPD5495], on DDR1, the Dmax lay within 75 to 85%. For the same compound, the IC50 with SNU5 and in the assay on MKN45 was 100 to 500 nM throughout.
The compound `COc1cc2c(Oc3ccc(NC(=O)C4(C(=O)Nc5ccc(F)cc5)CC4)cc3)ccnc2cc1-c1cnn(C2CCN(C(=O)CCCCC(=O)N[C@H](C(=O)N3C[C@H](O)C[C@H]3C(=O)NCc3ccc(-c4scnc4C)cc3)C(C)(C)C)CC2)c1` [TPD5505] yielded a Dmax at DDR1 of 75 to 85%. For the same compound, the IC50 was in the range of 500 to 1000 nM in the assay with SNU5 and 1000 to 3000 nM with MKN45.
The corresponding values for `COc1cc2c(Oc3ccc(NC(=O)C4(C(=O)Nc5ccc(F)cc5)CC4)cc3)ccnc2cc1N1CCC(OCCC(=O)Nc2ccc3c(c2)C(=O)N(C2CCC(=O)NC2=O)C3=O)CC1` (stereo not drawn) [TPD5706] are 75 to 85%, 100 to 500 nM and 100 to 500 nM.
The corresponding values for `COc1cc2c(Oc3ccc(NC(=O)C4(C(=O)Nc5ccc(F)cc5)CC4)cc3)ccnc2cc1NC(=O)c1cnc(N2CCC(CN3CCN(c4ccc5c(c4)C(=O)N(C4CCC(=O)NC4=O)C5=O)CC3)CC2)nn1` (stereo not drawn) [TPD5714] are 65 to 75%, at most 100 nM and 100 to 500 nM.
The corresponding values for `COc1cc2c(Oc3ccc(NC(=O)C4(C(=O)Nc5ccc(F)cc5)CC4)cc3)ccnc2cc1NC(=O)CCN1CCC(CN2CCN(c3ccc4c(c3)C(=O)N(C3CCC(=O)NC3=O)C4=O)CC2)CC1` (stereo not drawn) [TPD5734] are 65 to 75%, 100 to 500 nM and 100 to 500 nM.
On DDR1, `COc1cc2c(Oc3ccc(NC(=O)C4(C(=O)Nc5ccc(F)cc5)CC4)cc3)ccnc2cc1NC(=O)CN1CCC(CN2CCN(c3ccc4c(c3)C(=O)N(C3CCC(=O)NC3=O)C4=O)CC2)CC1` (stereo not drawn) [TPD5735] registered a Dmax of 75 to 85%. The IC50 is 100 to 500 nM in the assay on SNU5 and 500 to 1000 nM in the assay on MKN45.
As for `COc1cc2c(Oc3ccc(NC(=O)C4(C(=O)Nc5ccc(F)cc5)CC4)cc3)ccnc2cc1NC(=O)CC1CCN(C(=O)CN2CCN(c3ccc4c(c3)C(=O)N(C3CCC(=O)NC3=O)C4=O)CC2)CC1` (stereo not drawn) [TPD5745], the Dmax on DDR1 is 65 to 75%. Further, the IC50 in the assay on SNU5 and with MKN45 was 500 to 1000 nM each time.
On DDR1, `COc1cc2c(Oc3ccc(NC(=O)C4(C(=O)Nc5ccc(F)cc5)CC4)cc3)ccnc2cc1NC(=O)CN1CCN(CC2CCN(c3ccc4c(c3)C(=O)N(C3CCC(=O)NC3=O)C4=O)CC2)CC1` (stereo not drawn) [TPD5746] displayed a Dmax of 75 to 85%. In addition, the IC50 with SNU5 is 500 to 1000 nM; in the assay with MKN45, 100 to 500 nM.
Turning to `COc1cc2c(Oc3ccc(NC(=O)C4(C(=O)Nc5ccc(F)cc5)CC4)cc3)ccnc2cc1NC(=O)CCCN1CCC(CN2CCN(c3ccc(NC4CCC(=O)NC4=O)cc3)CC2)CC1` (stereo not drawn) [TPD5752m], the Dmax on DDR1 was over 85%. Moreover, the IC50 with SNU5 and in the assay on MKN45 was 100 to 500 nM throughout.
`COc1cc2c(Oc3ccc(NC(=O)C4(C(=O)Nc5ccc(F)cc5)CC4)cc3)ccnc2cc1NC(=O)CN1CCC(CN2CCN(c3ccc(N(C)C4CCC(=O)NC4=O)nc3F)CC2)CC1` (stereo not drawn) [TPD5760] gave a Dmax on DDR1 of 65 to 75%. Moreover, the IC50 with SNU5 and in the assay with MKN45 was 100 to 500 nM in each case.
